Source: US4226883A, “Carbamate derivatives and method for manufacture thereof” (priority 1974, dated 1980)

Assays:
[1] = target: cholinesterase (ChE), susceptible strain; assay: Inhibition of cholinesterase (acetylthiocholine method), susceptible strain enzyme; type: biochemical, green rice leafhopper, Nephotettix cincticeps; conditions: for IC50: 50% inhibition concentration, 30° C. 30 min with inhibitor, read-out: Inhibition of Cholinesterase I50 (M) S
Procedure: The activity of ChE was performed by the acethyethiocholine method [Ellman (1961), Biochemical Pharmacology 7: 88-95].
[…]. After centrifuged (30,000 g, 10 min.), the supernatant was used as the source of ChE.
(§1) (2) Inhibition: 1.0 ml of enzyme solution was incubated with 0.1 ml of inhibitor which diluted with acetone at 30° C. for 30 min. ((2) solution).
(3) Determination of ChE activity: 1.0 ml of acetylthiochline (3.5/2×10^-2 M), 1.0 ml of DTNB (5,5'-dithiobis-2-nitrobenzoic acid, 2.5×10^-4 M) and 4.0 ml of phosphate buffer (1/15 M, pH 7.4) were added to the (2) solution and incubated at 30° C. for 10 min. After incubation, […] of eserine (2×10^-3 M) was added in order to stop the enzyme reaction and the optical density of the yellow solution was measured at 412 mμ on the spectrophotometer.

[2] = test system: cholinesterase (ChE), resistant strain; type: biochemical, green rice leafhopper, Nephotettix cincticeps; conditions: for Inhibition of Cholinesterase R/S (resistant ratio): ratio of the resistant strain to the susceptible strain (I50), 30 min; for IC50 / rate of inhibition (%) in 10^-3 M, R: resistant strain; for IC50: 50% inhibition concentration, 30° C. 30 min with inhibitor, read-out: Inhibition of Cholinesterase I50 (M) R
Procedure: After centrifuged (30,000 g, 10 min.), the supernatant was used as the source of ChE.
as §1
(3) Determination of ChE activity: 1.0 ml of acetylthiochline (3.5/2×10^-2 M), 1.0 ml of DTNB (5,5'-dithiobis-2-nitrobenzoic acid, 2.5×10^-4 M) and 4.0 ml of phosphate buffer (1/15 M, pH 7.4) were added to the (2) solution and incubated at 30° C. for 10 min.

[3] = test system: resistant green rice leafhoppers (R); conditions: 1440 min; for Insecticidal Activity R/S (resistant ratio): ratio of the resistant strain to the susceptible strain (LD50)
Procedure: (1) A 20-mg portion of a given test compound was weighed out and dissolved in 10 ml of acetone. The resultant solution was diluted at proper times with acetone.
(2) With a micro-syringe, the acetone solution of the test compound was topically applied to the thoracic region of female green rice leafhoppers at a fixed dose of 0.2 μl per head.
(3) The female green rice leafhoppers thus treated were placed in a plastic cup prepared in advance (measuring 7 cm in diameter and 3.5 cm in depth and containing rice seeds) and kept at a constant temperature of 26±1° C. After 24 hours' standing, the dead insects were counted.
In the case of a mixed insecticide, the LD50 was shown as a total dosage.

[4] = test system: green rice leafhoppers of the strain RN; assay: Test Example 3: dust spray test (20 mesh metal gauze cylinder); type: in vivo, Nephotettix cincticeps; conditions: for mortality at 100 mg/cylinder / mortality at 250 mg/cylinder: 2% dust, 24 hr; for mortality at 100 mg/cylinder: read-out: Mortality (%) after 24 hr., 100 mg Spray (Table 7); for mortality at 250 mg/cylinder: read-out: Mortality (%) after 24 hr., 250 mg Spray (Table 7); for death ratio (%), mixture with Compound No. 1 / death ratio (%), mixture with Compound No. 6* / death ratio (%), mixture with Compound No. 24* / death ratio (%), mixture with Compound No. 35* / death ratio (%), mixture with Compound No. 40* / death ratio (%), mixture with Compound No. 49* / death ratio (%), mixture with Compound No. 81* / death ratio (%), mixture with Compound No. 118* / death ratio (%), mixture with Carbofuran / death ratio (%), mixture with Methomyl: Table 9, RN; for death ratio (%), mixture with Compound No. 1: dust mixed with 1; for death ratio (%), mixture with Compound No. 6*: dust mixed with 6*; for death ratio (%), mixture with Compound No. 24*: dust mixed with 24*; for death ratio (%), mixture with Compound No. 35*: dust mixed with 35*; for death ratio (%), mixture with Compound No. 40*: dust mixed with 40*; for death ratio (%), mixture with Compound No. 49*: dust mixed with 49*; for death ratio (%), mixture with Compound No. 81*: dust mixed with 81*; for death ratio (%), mixture with Compound No. 118*: dust mixed with 118*; for death ratio (%), mixture with Carbofuran: dust mixed with Carbofuran; for death ratio (%), mixture with Methomyl: dust mixed with Methomyl; for Effect of individual compound (RN), death ratio (%) (Table 9): dust, compound alone, RN strain
Procedure: The insecticides in the form of dust were tested for insecticidal activity.
The test for insecticidal activity was performed by the following procedure. […] The dust of a test compound (pulverized by means of a shaking pulverizer made by Taira Kosakusho, Ltd.) was applied onto the tube contents at a prescribed rate by spraying from outside the metal gauze by means of a bell-jar duster. The dust of the test compound was prepared uniformly mixing 2 parts of the dust of the individual compound or 1 part each of the dusts of the mixture components (total 2 parts) and 98 parts of a carrier obtained by mixing talc and clay in equal volumes.

Row | Structure (SMILES) | IC50 [1] [M] | Inhibition of Cholinesterase R/S (resistant ratio) [2] | IC50 [2] [M] | further results
1 | CCCCNC(=O)Oc1cccc(C(C)C)c1 [Compound 14] | 7.4e-05 | 0.2 | 1.7e-05 | 
2 | C=CCNC(=O)Oc1cccc(C(C)CCC)c1 (stereo not drawn) [Compound 23] |  | 0.3 | 1.3e-06 | Insecticidal Activity R/S (resistant ratio) [3]: 0.7
3 | CCCCNC(=O)Oc1cccc(C)c1 [Compound 27] | > 0.001 | < 0.3 | 0.00027 | 
4 | CCCCNC(=O)Oc1ccc(C)c(C)c1 [Compound 38] | 0.00056 | 0.04 | 2e-05 | 
5 | CCCCNC(=O)Oc1cc(C)cc(C)c1 [Compound 43] | 0.00068 | 0.04 | 2.7e-05 | 
6 | C=CCNC(=O)Oc1cc(C)cc(C)c1 [Compound 44, 3,5-dimethylphenyl-N-allylcarbamate] |  |  |  | Insecticidal Activity R/S (resistant ratio) [3]: 0.9; mortality at 100 mg/cylinder [4]: 60%; mortality at 250 mg/cylinder [4]: 80%
7 | CNC(=O)Oc1cc(C)cc(C(C)C)c1 [Compound 45, 3-methyl-5-isopropylphenyl-N-methylcarbamate, reference compound] |  |  |  | Insecticidal Activity R/S (resistant ratio) [3]: 11.6; mortality at 100 mg/cylinder [4]: 0%; mortality at 250 mg/cylinder [4]: 10%
8 | CCNC(=O)Oc1cc(C)cc(C(C)C)c1 [Compound 46, 3-methyl-5-isopropylphenyl-N-ethylcarbamate] |  |  |  | Insecticidal Activity R/S (resistant ratio) [3]: 0.9; mortality at 100 mg/cylinder [4]: 45%; mortality at 250 mg/cylinder [4]: 70%
9 | CCCNC(=O)Oc1cc(C)cc(C(C)C)c1 [Compound 47, 3-methyl-5-isopropylphenyl-N-n-propylcarbamate] |  |  |  | Insecticidal Activity R/S (resistant ratio) [3]: 1.4; mortality at 100 mg/cylinder [4]: 70%; mortality at 250 mg/cylinder [4]: 100%
10 | CCCCNC(=O)Oc1cc(C)cc(C(C)C)c1 [Compound 48] | > 0.001 | < 0.09 | 8.8e-05 | 
11 | CNC(=O)Oc1cc(C)c(C)cc1C [Compound 59, reference compound] | 2.3e-06 | 24.8 | 5.7e-05 | 
12 | CNC(=O)Oc1ccccc1OC [Compound 76, reference compound] | 1.7e-05 | 32.3 | 0.00055 | death ratio (%), mixture with Compound No. 1 [4]: 15.0%; death ratio (%), mixture with Compound No. 6* [4]: 0%; death ratio (%), mixture with Compound No. 24* [4]: 20.0%; death ratio (%), mixture with Compound No. 35* [4]: 10.0%; death ratio (%), mixture with Compound No. 40* [4]: 0%; death ratio (%), mixture with Compound No. 49* [4]: 0%; death ratio (%), mixture with Compound No. 81* [4]: 35.0%; death ratio (%), mixture with Compound No. 118* [4]: 45.0%; death ratio (%), mixture with Carbofuran [4]: 60.0%; death ratio (%), mixture with Methomyl [4]: 55.0%; Effect of individual compound (RN), death ratio (%) (Table 9) [4]: 0%
13 | CNC(=O)Oc1ccccc1OC(C)C [Compound 81, 2-isopropoxyphenyl-N-methylcarbamate, reference compound] |  |  |  | Effect of individual compound, LD50 (μ g/g) (Table 5-2) ([3]; compound alone): > 100 μ g/g; death ratio (%), mixture with Compound No. 1 [4]: 0%; death ratio (%), mixture with Compound No. 6* [4]: 5.0%; death ratio (%), mixture with Compound No. 24* [4]: 0%; death ratio (%), mixture with Compound No. 35* [4]: 15.0%; death ratio (%), mixture with Compound No. 40* [4]: 20.0%; death ratio (%), mixture with Compound No. 49* [4]: 0%; death ratio (%), mixture with Compound No. 81* [4]: 10.0%; death ratio (%), mixture with Compound No. 118* [4]: 57.5%; death ratio (%), mixture with Carbofuran [4]: 30.0%; death ratio (%), mixture with Methomyl [4]: 35.0%; Effect of individual compound (RN), death ratio (%) (Table 9) [4]: 0%
14 | CCC(C)Oc1ccccc1OC(=O)NC (stereo not drawn) [Compound 86, reference compound] | 2.1e-06 | 31.9 | 6.7e-05 | 
15 | C=CCOc1ccccc1OC(=O)NC [Compound 88, reference compound] | 7e-06 | 15.7 | 0.00011 | 
16 | C#CCOc1ccccc1OC(=O)NC [Compound 90, reference compound] | 8.2e-06 | 9.6 | 7.9e-05 | 
17 | CCNC(=O)Oc1cccc(OCC)c1 [Compound 93] | 0.00044 | 0.8 | 0.00035 | 
18 | C=CCOc1cccc(OC(=O)NC)c1 [Compound 98, reference compound] | 4.1e-06 | 87.8 | 0.00036 | 
19 | C#CCOc1cccc(OC(=O)NC)c1 [Compound 100, reference compound] | 3.5e-05 | 24.3 | 0.00085 | 
20 | CNC(=O)Oc1ccccc1N(C)C [Compound 106, reference compound] | 9.6e-06 | 13.5 | 0.00013 | 
21 | CNC(=O)Oc1ccccc1NC(C)C [Compound 110, reference compound] | 2.3e-06 | 73.9 | 0.00017 | 
22 | CNC(=O)Oc1ccc(SC)c(C)c1 [Compound 135, reference compound] | 1e-05 | 3.5 | 3.5e-05 | 
23 | CNC(=O)Oc1ccccc1 [Compound 140, reference compound] | 0.00013 |  | > 0.001 | rate of inhibition (%) in 10^-3 M, R [2]: 42.5%
24 | CCNC(=O)Oc1ccccc1 [Compound 141, phenyl-N-ethylcarbamate] | > 0.001 |  | > 0.001 | rate of inhibition (%) in 10^-3 M, S [1]: 30.4%; rate of inhibition (%) in 10^-3 M, R [2]: 43.4%
25 | CCCNC(=O)Oc1ccccc1 [Compound 142, phenyl-N-n-propylcarbamate] | > 0.001 | < 0.6 | 0.00066 | rate of inhibition (%) in 10^-3 M, S [1]: 12.0%
26 | CCCCNC(=O)Oc1ccccc1 [Compound 143] | > 0.001 |  | > 0.001 | rate of inhibition (%) in 10^-3 M, S [1]: 3.3%; rate of inhibition (%) in 10^-3 M, R [2]: 46.0%
27 | C=CCNC(=O)Oc1ccccc1 [Compound 144, phenyl-N-allylcarbamate] | > 0.001 | < 0.5 | 0.00052 | rate of inhibition (%) in 10^-3 M, S [1]: 10.00%
